We go through eight molecules from US20100130500A1, “METHODS AND COMPOSITIONS FOR THE TREATMENT OF PULMONARY HYPERTENSION OF THE NEWBORN” (BIOMARIN PHARMACEUTICAL INC., priority 2004, published 2010).

The nature of series [1]: Physical stability of crystal forms (temperature, humidity, phase equilibration). The series is classed as physicochemical.
A short description of series [2]: Hygroscopicity / water adsorption of crystal forms. The series is classed as physicochemical. The conditions noted are these: dihydrochloride.
Series [3] concerns infants with PPHN. The following applies: cited from earlier work.

`C[C@H](O)[C@H](O)[C@H]1CNc2nc(N)[nH]c(=O)c2N1.Cl.Cl` [Polymorph A, (6R)-L-erythro-tetrahydrobiopterin dihydrochloride]: the “phase equilibration tests of suspensions” value in series [1] (tetrahydrofuran or tertiary-butyl methyl ether, stirred five days and 18 hours respectively, nitrogen, room temperature, filtration and air-drying) is recorded as “unchanged polymorph form A”. Moreover, in series [2], the “adsorbs water to a content of” value is reported as “about 3 percent by weight”. Consider `C[C@H](O)[C@H](O)[C@H]1CNc2nc(N)[nH]c(=O)c2N1.Cl.Cl` [Polymorph B, (6R)-L-erythro-tetrahydrobiopterin dihydrochloride], for which, in series [1] (dihydrochloride), the “stability of the crystal form” value was “highest thermodynamic stability above about 20 °C”.

For `C[C@H](O)[C@H](O)[C@H]1CNc2nc(N)[nH]c(=O)c2N1.Cl.Cl` [Polymorph F, (6R)-L-erythro-tetrahydrobiopterin dihydrochloride], the “adsorbs water to a content of” value in series [2] was “about 3 percent by weight”.

Take `C[C@H](O)[C@H](O)[C@H]1CNc2nc(N)[nH]c(=O)c2N1.Cl.Cl` [Polymorph K, (6R)-L-erythro-tetrahydrobiopterin dihydrochloride]: the “adsorbs water to a content of” value in series [2] is “about 2.0 percent by weight”. For the molecule `Nc1ncnc2c1ncn2[C@@H]1O[C@H](COP(=O)(O)OP(=O)(O)OP(=O)(O)O)[C@@H](O)[C@H]1O` [adenosine triphosphate], the “infants with a response” value in series [3] is reported as 5 out of 6. On to `C[C@H](O)[C@H](O)[C@H]1CNc2nc(N)[nH]c(=O)c2N1.Cl.Cl` [hydrate form D, (6R)-L-erythro-tetrahydrobiopterin dihydrochloride], for which the “relative humidity at which the form is stable” value in series [1] (ambient temperatures, dihydrochloride) is listed as “less than 70%”. Turning to `C[C@H](O)[C@H](O)[C@H]1CNc2nc(N)[nH]c(=O)c2N1.Cl.Cl` [polymorph J, (6R)-L-erythro-tetrahydrobiopterin dihydrochloride], the “relative humidity at which it is transformed back into form E” value in series [1] is given as “above 75%”. As for `c1ccc(CC2=NCCN2)cc1` [tolazoline], the response rate in series [3] is on record as 60%.
